Measurements reported in ChEMBL document CHEMBL4038324, “Amidoalkylindoles as Potent and Selective Cannabinoid Type 2 Receptor Agonists with in Vivo Efficacy in a Mouse Model of Multiple Sclerosis” (J Med Chem, 2017).
Calls of active or inactive are those of the source. The calls are words filed in the database; no cut-off is given here.

Legend:
[1] = target: T1, Cannabinoid receptor 1 (CB1) (Homo sapiens, UniProt P21554); test: Agonist activity at human CB1 receptor expressed in CHO cells assessed as induction of Ca2+ flux after 10 mins by Fluor-4 AM dye based assay relative to CP55940; assay type: cell-based; conditions: CHO cells expressing human CB1 receptor
Cannabinoid receptor 2 [2] = target: T2, Cannabinoid receptor 2 (Homo sapiens, UniProt P34972); test: Agonist activity at human CB2 receptor expressed in CHO cells assessed as induction of Ca2+ flux after 10 mins by Fluor-4 AM dye based assay; assay type: functional, cell-based
Cannabinoid receptor 2 [3] = target: T2, Cannabinoid receptor 2; test: Antagonist activity at human CB2 receptor expressed in CHO cells assessed as inhibition of CP55940-induced Ca2+ flux at 10 uM preincubated for 10 mins followed by agonist addition by Fluor-4 AM dye based assay; assay type: functional, cell-based
Cannabinoid receptor 1 [4] = target: T3, Cannabinoid receptor 1 (Homo sapiens, UniProt P21554); test: Agonist activity at human CB1 receptor expressed in CHO cells assessed as induction of Ca2+ flux after 10 mins by Fluor-4 AM dye based assay; assay type: cell-based
[5] = target: T1, Cannabinoid receptor 1 (CB1); test: Antagonist activity at human CB1 receptor expressed in CHO cells assessed as inhibition of CP55940-induced Ca2+ flux at 10 uM preincubated for 10 mins followed by agonist addition by Fluor-4 AM dye based assay; assay type: cell-based; conditions: CHO cells expressing human CB1 receptor
Cannabinoid receptor 2 [6] = target: T2, Cannabinoid receptor 2; test: Agonist activity at human N-terminal HA-tagged CB2 receptor expressed in mouse AtT20 cells by FLIPR membrane potential assay; assay type: cell-based
Cannabinoid receptor 1 [7] = target: Cannabinoid receptor 1 (Rattus norvegicus, UniProt P20272); test: Agonist activity at rat CB1 receptor expressed in mouse AtT20 cells by FLIPR membrane potential assay; assay type: cell-based
Cannabinoid receptor 2 [8] = target: T2, Cannabinoid receptor 2; test: Agonist activity at human CB2 receptor expressed in CHO cells assessed as induction of Ca2+ flux after 10 mins by Fluor-4 AM dye based assay relative to CP55940; assay type: functional, cell-based
Mus musculus [9] = test: In vivo partial agonist activity at CB2 receptor in EAE C57BL/6 mouse model assessed as reduction in clinical signs at 10 to 30 mg/kg, ip administered from day 3 after immunization with MOG until day 27; assay type: functional, organism-based
[10] = Half life in C57 mouse at 10 mg/kg, ip measured up to 2 hrs by LC-MS/MS analysis; assay type: ADME, organism-based; conditions: in vivo
[11] = AUC (0 to t) in C57 mouse at 10 mg/kg, ip measured up to 2 hrs by LC-MS/MS analysis; assay type: ADME, organism-based; parameters: dose 10 mg/kg, time < 2 hr, route intraperitoneal; conditions: in vivo
Cannabinoid receptor 2 [12] = target: T2, Cannabinoid receptor 2; test: Agonist activity at human CB2 receptor expressed in CHO cells assessed as inhibition of forskolin-induced cAMP accumulation preincubated for 20 mins followed by forskolin addition measured after 30 mins by HTRF assay; assay type: functional, cell-based
[13] = AUC (0 to infinity) in C57 mouse at 10 mg/kg, ip measured up to 2 hrs by LC-MS/MS analysis; assay type: ADME, organism-based; parameters: dose 10 mg/kg, time infinity, route intraperitoneal; conditions: in vivo
Mus musculus [14] = test: AUMC (0 to infinity) in C57 mouse at 10 mg/kg, ip measured up to 2 hrs by LC-MS/MS analysis; assay type: ADME, organism-based; conditions: in vivo
[15] = Ratio of Cmax in C57 mouse at 10 mg/kg, ip to EC50 for human CB2 receptor expressed in CHO cells assessed as induction of Ca2+ flux
[16] = Tmax in C57 mouse at 10 mg/kg, ip measured up to 2 hrs by LC-MS/MS analysis; assay type: ADME, organism-based; conditions: in vivo
[17] = MRT in C57 mouse at 10 mg/kg, ip measured up to 2 hrs by LC-MS/MS analysis; assay type: ADME, organism-based; conditions: in vivo
[18] = Elimination rate constant in C57 mouse at 10 mg/kg, ip measured up to 2 hrs by LC-MS/MS analysis; assay type: ADME, organism-based; conditions: in vivo
Mus musculus [19] = test: In vivo partial agonist activity at CB2 receptor in EAE C57BL/6 mouse model assessed as reduction in leukocyte infiltration in white matter region at 10 to 30 mg/kg, ip administered from day 3 after immunization with MOG until day 19 by H and E staining based assay; assay type: functional, organism-based
Mus musculus [20] = test: AUMC (0 to t) in C57 mouse at 10 mg/kg, ip measured up to 2 hrs by LC-MS/MS analysis; assay type: ADME, organism-based; conditions: in vivo
Cannabinoid receptor 1 [21] = target: T3, Cannabinoid receptor 1; test: Agonist activity at human CB1 receptor expressed in CHO cells assessed as induction of Ca2+ flux at 10 uM after 10 mins by Fluor-4 AM dye based assay; assay type: cell-based
Mus musculus [22] = test: In vivo partial agonist activity at CB2 receptor in EAE C57BL/6 mouse model assessed as reduction in extensive demyelination in white matter at 10 to 30 mg/kg, ip administered from day 3 after immunization with MOG until day 19 by Luxol fast blue staining based assay; assay type: functional, organism-based
[23] = Cmax in C57 mouse at 10 mg/kg, ip measured up to 2 hrs by LC-MS/MS analysis; assay type: ADME, organism-based; parameters: dose 10 mg/kg, route intraperitoneal; conditions: in vivo

T2 sequence (P34972 whole entry): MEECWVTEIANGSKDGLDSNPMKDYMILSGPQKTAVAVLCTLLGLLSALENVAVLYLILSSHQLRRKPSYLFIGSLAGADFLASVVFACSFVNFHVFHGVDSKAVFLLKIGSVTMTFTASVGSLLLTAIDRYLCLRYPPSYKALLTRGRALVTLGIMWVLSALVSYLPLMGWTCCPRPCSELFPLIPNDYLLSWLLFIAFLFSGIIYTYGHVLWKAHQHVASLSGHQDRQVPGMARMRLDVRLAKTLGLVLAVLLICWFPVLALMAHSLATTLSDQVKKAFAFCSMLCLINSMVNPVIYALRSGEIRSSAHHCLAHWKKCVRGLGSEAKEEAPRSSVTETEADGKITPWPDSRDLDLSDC
T1 sequence (P21554 whole entry): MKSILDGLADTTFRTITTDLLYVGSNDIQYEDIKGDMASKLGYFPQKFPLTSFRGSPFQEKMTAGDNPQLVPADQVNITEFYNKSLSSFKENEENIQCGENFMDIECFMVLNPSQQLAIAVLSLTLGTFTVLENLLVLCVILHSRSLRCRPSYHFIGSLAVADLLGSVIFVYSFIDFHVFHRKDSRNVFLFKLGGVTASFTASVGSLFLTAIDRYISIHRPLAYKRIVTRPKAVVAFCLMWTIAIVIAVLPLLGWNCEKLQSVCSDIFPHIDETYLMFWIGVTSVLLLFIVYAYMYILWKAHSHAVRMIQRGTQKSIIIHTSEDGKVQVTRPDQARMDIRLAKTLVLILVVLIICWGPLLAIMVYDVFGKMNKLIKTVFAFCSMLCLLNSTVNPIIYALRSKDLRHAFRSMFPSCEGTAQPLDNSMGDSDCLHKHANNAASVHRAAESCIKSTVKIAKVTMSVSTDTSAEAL
T3 sequence (P21554 whole entry): as above
Cannabinoid receptor 1 (Rattus norvegicus, UniProt P20272), sequence (P20272 whole entry): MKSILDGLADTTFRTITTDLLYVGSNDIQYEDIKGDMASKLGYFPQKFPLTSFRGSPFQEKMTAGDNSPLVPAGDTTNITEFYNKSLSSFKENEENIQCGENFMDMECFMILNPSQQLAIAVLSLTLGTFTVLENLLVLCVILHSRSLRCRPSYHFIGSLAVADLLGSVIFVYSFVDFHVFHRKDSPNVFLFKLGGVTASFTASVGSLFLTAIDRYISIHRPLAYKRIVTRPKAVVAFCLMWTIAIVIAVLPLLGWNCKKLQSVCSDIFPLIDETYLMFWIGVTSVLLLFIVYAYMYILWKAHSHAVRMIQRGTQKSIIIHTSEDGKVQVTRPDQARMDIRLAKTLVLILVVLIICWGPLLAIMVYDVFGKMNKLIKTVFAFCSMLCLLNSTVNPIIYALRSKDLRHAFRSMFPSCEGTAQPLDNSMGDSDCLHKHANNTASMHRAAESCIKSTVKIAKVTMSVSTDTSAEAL

Q: For `CCCCCn1cc(C(=O)NC23CC4CC(CC(C4)C2)C3)c2ccccc21`, which Emax at 10 min [1] is on record?
A: 68.3%

Q: What about the EC50 (Cannabinoid receptor 2 [2]) of the same compound?
A: 59 nM

Q: What about the inhibition (Cannabinoid receptor 2 [3]) of the same compound?
A: < 50%

Q: What about the EC50 (Cannabinoid receptor 1 [4]) of the same compound?
A: 39 nM

Q: What about the inhibition at 10 min, 10 µM [5] of the same compound?
A: < 50%

Q: And the EC50 (Cannabinoid receptor 2 [6])?
A: 29 nM

Q: And the EC50 (Cannabinoid receptor 1 [7])?
A: 34 nM

Q: What about the Emax (Cannabinoid receptor 2 [8]) of the same compound?
A: 66.3%

Q: Which results are given for `O=C(NC12CC3CC(CC(C3)C1)C2)c1cc2ccccc2n1CCCCO`?
A: Activity (Mus musculus [9]): Active; half-life [10]: 1.04 h; AUC(0-t) at 2 h [11]: 317 ng·h/mL; EC50 (Cannabinoid receptor 2 [12]): 142 nM; AUC(0-inf) [13]: 428 ng·h/mL; EC50 (Cannabinoid receptor 2 [2]): 120 nM; inhibition (Cannabinoid receptor 2 [3]): < 50%; AUMC (Mus musculus [14]): 637 hr.hr.ng/ml; Ratio [15]: 8; Tmax [16]: 0.25 h; MRT [17]: 1.51 h; k el at 2 h [18]: 0.000189 s⁻¹; inhibition at 10 min, 10 µM [5]: < 50%; Activity (Mus musculus [19]): Active; AUMCt (Mus musculus [20]): 248 hr.hr.ng/ml; Activity (Cannabinoid receptor 1 [21]): < 50%; Activity (Mus musculus [22]): Active; Cmax [23]: 350 ng/mL; Emax (Cannabinoid receptor 2 [8]): 85%
